From the supplement of paper PMC6125532 come the findings set out here.

For test [1], the system named is Mycobacterium tuberculosis CRY-4; CRY-30. The method, then: (§1)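 Resazurin microtiter assay (REMA) MICs of anti-TB drugs against 19 EQA Mycobacterium tuberculosis strains (clinical or proficiency isolates plus H37Rv). Drugs were tested in doubling dilutions. Each value is the consensus of two measurements; where they disagreed the lower value was taken.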
Test [2] relates to Mycobacterium tuberculosis CRY-8; CRY-13. The method, then:
as §1

The subject of test [3] is Mycobacterium tuberculosis CRY-7; CRY-18. The method, then: as §1
Test [4] concerns Mycobacterium tuberculosis CRY-28. The method, then: as §1
Test [5] deals with Mycobacterium tuberculosis CRY-27. As for the experimental part:
as §1

Test [6] deals with Mycobacterium tuberculosis CRY-2; CRY-25. As for the experimental part:
as §1

The subject of test [7] is Mycobacterium tuberculosis CRY-26. As for the experimental part:
as §1

The subject of test [8] is Mycobacterium tuberculosis CRY-14. As for the experimental part:
as §1

Test [9] concerns Mycobacterium tuberculosis CRY-6; CRY-29. As for the experimental part: as §1
Test [10] deals with Mycobacterium tuberculosis CRY-15; CRY-21. As for the experimental part:
as §1

For test [11], the system named is Mycobacterium tuberculosis CRY-5; CRY-10. As for the experimental part:
as §1

For test [12], the system named is Mycobacterium tuberculosis CRY-20. The method, then:
as §1

For test [13], the system named is Mycobacterium tuberculosis CRY-1; CRY-17. The method, then: as §1
The subject of test [14] is Mycobacterium tuberculosis CRY-23. The method, then: as §1
Test [15] concerns Mycobacterium tuberculosis CRY-3; CRY-11. As for the experimental part:
as §1

For test [16], the system named is Mycobacterium tuberculosis CRY-9; CRY-22. As for the experimental part: as §1
Test [17] relates to Mycobacterium tuberculosis CRY-12; CRY-24. The method, then:
as §1

Test [18] relates to Mycobacterium tuberculosis CRY-16. As for the experimental part: as §1
Test [19] relates to Mycobacterium tuberculosis CRY-19. The method, then:
as §1

≈ marks a conversion by molar mass, not a printed value.

`NC[C@H]1O[C@H](O[C@H]2[C@H](O)[C@@H](O[C@H]3O[C@H](CO)[C@@H](O)[C@H](N)[C@H]3O)[C@H](N)C[C@@H]2N)[C@H](O)[C@@H](O)[C@@H]1O` [Kanamycin]: the “MIC (REMA)” value in [1] was 2 µg/mL (≈ 4.13 µM); in test [2], 2 µg/mL (≈ 4.13 µM); in [3], more than 32 µg/mL; in test [4], 0.5 µg/mL (≈ 1.03 µM); in [5], 2 µg/mL (≈ 4.13 µM); in [6], 1 µg/mL (≈ 2.06 µM). Further, the “MIC (REMA)” value in [7] was 1 µg/mL (≈ 2.06 µM); in test [8], more than 32 µg/mL; in [9], 1 µg/mL (≈ 2.06 µM); in test [10] it was 2 µg/mL (≈ 4.13 µM); in test [11], 0.5 µg/mL (≈ 1.03 µM); in [12] it was 1 µg/mL (≈ 2.06 µM). Also, the “MIC (REMA)” value in [13] was 1 µg/mL (≈ 2.06 µM); in [14] it was 0.5 µg/mL (≈ 1.03 µM); in test [15], 2 µg/mL (≈ 4.13 µM); in test [16] it was 1 µg/mL (≈ 2.06 µM); in test [17], more than 32 µg/mL; in [18], 1 µg/mL (≈ 2.06 µM). The “MIC (REMA)” value in test [19] was 0.5 µg/mL (≈ 1.03 µM).
On to `C[C@H]1COc2c(N3CCN(C)CC3)c(F)cc3c(=O)c(C(=O)O)cn1c23` [Levofloxacin], for which the “MIC (REMA)” value in test [1] worked out at 0.25 µg/mL (≈ 0.692 µM); in [4] it was 0.06 µg/mL (≈ 0.166 µM); in [5] it was 0.25 µg/mL (≈ 0.692 µM); in [7], 0.25 µg/mL (≈ 0.692 µM); in test [8], 0.06 µg/mL (≈ 0.166 µM); in test [9], 0.125 µg/mL (≈ 0.346 µM). In addition, the “MIC (REMA)” value in [10] was found to be 0.125 µg/mL (≈ 0.346 µM); in test [12] it was 0.125 µg/mL (≈ 0.346 µM); in test [13], 0.125 µg/mL (≈ 0.346 µM); in [14], 0.06 µg/mL (≈ 0.166 µM); in test [15], 0.25 µg/mL (≈ 0.692 µM); in test [16] it was 0.125 µg/mL (≈ 0.346 µM). In addition, the results for the “MIC (REMA)” value in test [17], in test [18] and in [19] were 0.25 µg/mL (≈ 0.692 µM), 0.25 µg/mL (≈ 0.692 µM) and 0.125 µg/mL (≈ 0.346 µM), respectively.
With `CC(=O)NC[C@H]1CN(c2ccc(N3CCOCC3)c(F)c2)C(=O)O1` [Linezolid], the “MIC (REMA)” value in test [1] worked out at 0.5 µg/mL (≈ 1.48 µM); in [2], 0.25 µg/mL (≈ 0.741 µM); in test [3], 0.25 µg/mL (≈ 0.741 µM); in test [4], 0.125 µg/mL (≈ 0.371 µM); in test [5], 0.25 µg/mL (≈ 0.741 µM); in [6] it was 0.25 µg/mL (≈ 0.741 µM). Also, the “MIC (REMA)” value was 0.25 µg/mL (≈ 0.741 µM) in test [7]; 0.03 µg/mL (≈ 0.0889 µM) in [8]; 0.125 µg/mL (≈ 0.371 µM) in [9]; 0.25 µg/mL (≈ 0.741 µM) in test [10]; 0.25 µg/mL (≈ 0.741 µM) in test [11]; 0.125 µg/mL (≈ 0.371 µM) in test [12]. Moreover, the “MIC (REMA)” value stood at 0.25 µg/mL (≈ 0.741 µM) in [13]; 0.25 µg/mL (≈ 0.741 µM) in [14]; 0.5 µg/mL (≈ 1.48 µM) in test [15]; 0.25 µg/mL (≈ 0.741 µM) in test [16]; 0.25 µg/mL (≈ 0.741 µM) in test [17]; 0.25 µg/mL (≈ 0.741 µM) in [18]. In addition, in [19], the “MIC (REMA)” value came out at 0.06 µg/mL (≈ 0.178 µM).
In the case of `COc1c(N2C[C@@H]3CCCN[C@@H]3C2)c(F)cc2c(=O)c(C(=O)O)cn(C3CC3)c12` [Moxifloxacin], the “MIC (REMA)” value amounted to 0.06 µg/mL (≈ 0.149 µM) in test [1]; 0.5 µg/mL (≈ 1.25 µM) in [2]; 0.25 µg/mL (≈ 0.623 µM) in test [3]; 0.06 µg/mL (≈ 0.149 µM) in test [4]; 0.06 µg/mL (≈ 0.149 µM) in test [5]; 0.25 µg/mL (≈ 0.623 µM) in test [6]. For the same compound, the “MIC (REMA)” value in test [7] was 0.03 µg/mL (≈ 0.0747 µM); in test [8], not above 0.008 µg/mL; in test [9] it was 0.015 µg/mL (≈ 0.0374 µM); in [10], 0.06 µg/mL (≈ 0.149 µM); in test [11], 8 µg/mL (≈ 19.9 µM); in test [12], 0.03 µg/mL (≈ 0.0747 µM). Also, the “MIC (REMA)” value in test [13] was 0.03 µg/mL (≈ 0.0747 µM); in test [14], 0.03 µg/mL (≈ 0.0747 µM); in test [15], 0.03 µg/mL (≈ 0.0747 µM); in [16], 0.015 µg/mL (≈ 0.0374 µM); in [17], 0.06 µg/mL (≈ 0.149 µM); in test [18], 0.03 µg/mL (≈ 0.0747 µM). For the same compound, the “MIC (REMA)” value in [19] was found to be 0.04 µg/mL (≈ 0.0996 µM).
Regarding `CO[C@H]1/C=C/O[C@@]2(C)Oc3c(C)c(O)c4c(O)c(c(/C=N/N5CCN(C)CC5)c(O)c4c3C2=O)NC(=O)/C(C)=C\C=C\[C@H](C)[C@H](O)[C@@H](C)[C@@H](O)[C@@H](C)[C@H](OC(C)=O)[C@@H]1C` [Rifampicin], the “MIC (REMA)” value is more than 4 µg/mL in [2]; more than 4 µg/mL in test [3]; more than 4 µg/mL in [4]; more than 4 µg/mL in test [5]; 0.015 µg/mL (≈ 0.0182 µM) in test [7]; 2 µg/mL (≈ 2.43 µM) in test [8]. Moreover, the “MIC (REMA)” value in test [10] was 0.03 µg/mL (≈ 0.0365 µM); in test [11], more than 4 µg/mL; in [12] it was 0.06 µg/mL (≈ 0.0729 µM); in test [13], more than 4 µg/mL; in test [17], 0.015 µg/mL (≈ 0.0182 µM); in [19], 0.03 µg/mL (≈ 0.0365 µM).
